Results published in paper PMC8097242, “Galectin-4 N-Terminal Domain: Binding Preferences Toward A and B Antigens With Different Peripheral Core Presentations” (Frontiers in Chemistry, 2021).

Columns and labels:
Assay type in all cases: binding
[1] = target: T1, N-terminal CRD of hGalectin-4 (Gal-4N) (Homo sapiens, UniProt P56470); test: 1H-15N HSQC NMR-based titrations (chemical shift perturbation) of 15N-labeled Gal-4N
T1 construct: N-terminal CRD of hGalectin-4 (amino acids 1–150, including an additional C-terminus His-Tag); His-Tag (C, cleaved yes); made in house; host or cells: E. coli BL21 (pET29b)
T1 sequence (P56470 1-150): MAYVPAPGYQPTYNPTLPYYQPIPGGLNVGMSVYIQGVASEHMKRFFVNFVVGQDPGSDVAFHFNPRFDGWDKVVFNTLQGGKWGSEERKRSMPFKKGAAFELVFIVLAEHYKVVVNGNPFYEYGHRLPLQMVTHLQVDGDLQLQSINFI
Procedure: The molecular recognition event was also analyzed from the perspective of the lectin. Thus, a chemical shift perturbation (CSP) analysis of the changes produced in the ^1H-^15N HSQC spectra recorded for ^15N-labeled Gal-4N upon addition of the different ligands was carried out. This analysis required the NH backbone NMR assignment of the lectin signals, following well-established triple resonance 3D NMR methods (see Materials and methods and Supplementary Information). The assignment protocol allowed assigning 80% of the NH backbone resonances. In addition to the ligands shown in Scheme 1, the corresponding non-fucosylated analogs and the H antigens (devoid of the terminal Gal/GalNAc moieties, see Supplementary Information), as well as lactose, were also employed. Thus, a full comparative analysis on the monosaccharide-specific effects on the lectin CSP was achieved.
The total volume for the NMR samples was 500/μl. The lectin was in phosphate-buffered saline (50 mM sodium phosphate, 150 mM NaCl, pH 7.4), either in D2O or 90:10 H2O:D2O depending on the NMR experiment. The pH was adjusted with the required amount of NaOH and HCl or NaOD and DCl.
experiments were acquired using an 800 MHz Bruker spectrometer with a cryoprobe (Bruker, Billerica, MA, United States). The samples were prepared using 50 μM of the ^15N-labeled lectin in the corresponding buffer in a 90:10 H2O:D2O ratio. The experiments were performed at 298 K. Six to nine points were recorded for each ligand and CSP and KD were calculated using CcpNmr Analysis 2.4.2.

[2] = target: T1, N-terminal CRD of hGalectin-4 (Gal-4N); test: Isothermal titration calorimetry (ITC); conditions: for increased affinity of type-6 vs corresponding type-2 antigen: Glc vs GlcNAc at reducing end, β1–4 linked; for Kd: PBS pH 7.4, single binding site model
Procedure: Isothermal titration calorimetry experiments were performed using the MicroCal PEAQ-ITC calorimeter (Malvern Panalytical, Malvern, United Kingdom). Samples containing 100–200 μM of Gal-4N in PBS (50 mM sodium phosphate, pH 7.4, 300 mM NaCl) were titrated with stocks of 3–10 mM in PBS of glycans 4, 5, 7, 8, 9, and 11. During the automated experiment, small aliquots (2–3 μL) of the sugar stocks were added to the cell containing the lectin. Curve fitting to a single binding site model was performed with the MicroCal Origin 7 software.
Isothermal titratrion calorimetry (ITC). Isothermal Titration Calorimetry experiments were performed using MicroCal PEAQ-ITC calorimeter. Samples containing 100-200 µM of Gal-4N in PBS (50 mM sodium phosphate pH 7.4, 300 mM NaCl) were titrated with stocks of 3-10 mM in PBS of glycans A type 1, A type 2, A type 6, B type 1, B type 2 and B type 6. During the automated experiment, small aliquots (2-3 µL) of the sugar stocks were added to the cell containing the lectin. The association constants and the thermodynamic profile of the binding was calculated from the fitting of the titration data to a single binding site model.

[3] = target: T1, N-terminal CRD of hGalectin-4 (Gal-4N); test: 1H Saturation Transfer Difference (STD) NMR epitope mapping
Procedure: ^1H-saturation transfer difference NMR spectra were acquired for mixtures of Gal-4N (50 μM) with a 50-fold excess of ligand. Protein aromatic irradiation afforded the best STD intensities and thus these are discussed henceforth. The STD NMR spectra were very similar among the different ligands with respect to both the observed glycan protons and their intensities. […] Severe proton overlapping precluded a full comparison among ligands, but key isolated ^1H NMR resonance signals permitted to highlight evident differences.
All the STD NMR experiments were performed using an 800 MHz Bruker spectrometer with a cryoprobe (Bruker, Billerica, MA, United States). The samples were prepared in the corresponding deuterated buffer. The temperature was 288 K for every experiment. An amount of 50 μM of the lectin with 50 equivalents of the ligand was employed for every experiment except for lactose, for which a 1:70 ratio was used. The STD spectra were acquired with 1,024 scans, 2 s of saturation time using a train of 50 ms Gaussian-shaped pulses, and 3 s of relaxation delay. The spin-lock filter applied to remove the signals of the lectin was set at 40 ms. The on-resonance frequency was set for the aromatic region at 6.58 ppm, while the off-resonance frequency was set at 100 ppm.
Supplementary Table S1. Relative STD-AF (Amplification factor) and STD percentage of each non overlapping proton of each ligand.

[4] = HSQC NMR-based titration, 50 μM 15N-labeled lectin, 298 K, read-out: KD (μM) (NMR)
[5] = 1H-residue H1GalNAc, 50:1 ligand:lectin, 288 K
[6] = 1H-residue H4GalNAc (terminal, A type 6)
[7] = 1H-residue H4GalNAc (B type 4, core GalNAc)

Kd [1, 4] [µM] | -TΔS (kcal mol^–1) (ITC) [2] | ΔG (kcal mol^–1) (ITC) [2] | ΔH (kcal mol^–1) (ITC) [2] | Kd [2] [µM] | STD% ([3]; 1H-residue H1 Fuc) [%] | STD-AF ([3]; 1H-residue H1 Fuc) | STD% ([3]; 1H-residue H1Galβ) [%] | STD-AF ([3]; 1H-residue H1Galβ) | STD% ([3]; 1H-residue H2Galβ) [%] | STD-AF ([3]; 1H-residue H2Galβ) | STD% ([3]; 1H-residue H3Galβ) [%] | STD-AF ([3]; 1H-residue H3Galβ) | STD% ([3]; 1H-residue H4Galβ) [%] | STD-AF ([3]; 1H-residue H4Galβ) | STD% ([3]; 1H-residue H5Galβ) [%] | STD-AF ([3]; 1H-residue H5Galβ) | STD% ([3]; 1H-residue MetFuc) [%] | STD-AF ([3]; 1H-residue MetFuc) | further results | SMILES
60 | 6.4 | −5.9 | −12.3 | 51 | 28 | 0.0105 | 80 | 0.0298 | 34 | 0.0129 | 29 | 0.0108 | 82 | 0.0307 | 100 | 0.0374 | 20 | 0.0074 | fold range of NMR-based binding affinities, best vs worse binder ([1]; B-type 6 vs A-type 4): 20 fold; binding enthalpy [2]: -12.3 kcal/mol; increased affinity of type-6 vs corresponding type-2 antigen [2]: two-fold; fold difference in affinity of the best binder ([2]; among tetrasaccharides of Figure 6 (ITC)): 5 fold; STD% ([3]; 1H-residue H1Galα): 74%; STD-AF ([3]; 1H-residue H1Galα): 0.0276; STD% ([3]; 1H-residue H2Galα): 38%; STD-AF ([3]; 1H-residue H2Galα): 0.0142; STD% ([3]; 1H-residue H2Glca / H2Glcα): 39%; STD-AF ([3]; 1H-residue H2Glca / H2Glcα): 0.0146; STD% ([3]; 1H-residue H2Glcb / H2Glcβ): 36%; STD-AF ([3]; 1H-residue H2Glcb / H2Glcβ): 0.0135; STD% ([3]; 1H-residue H3Glcb / H3Glcβ): 46%; STD-AF ([3]; 1H-residue H3Glcb / H3Glcβ): 0.0172; STD% ([3]; 1H-residue H5Glcβ): 44%; STD-AF ([3]; 1H-residue H5Glcβ): 0.0163 | CC1OC(OC2C(OC3C(CO)OC(O)C(O)C3O)OC(CO)C(O)C2OC2OC(CO)C(O)C(O)C2O)C(O)C(O)C1O (stereo not shown) [B type-6 (tetra)]
– | – | – | – | – | – | – | – | – | – | – | – | – | – | – | – | – | – | – | Kd ([1]; NMR titration, read-out: KD): 1600 µM | OC[C@H]1O[C@@H](O[C@H]2[C@H](O)[C@@H](O)C(O)O[C@@H]2CO)[C@H](O)[C@@H](O)[C@H]1O (mixture of isomers) [Lactose]
370 | 1.8 | −5.1 | −6.9 | 187 | – | – | – | – | – | – | – | – | – | – | – | – | – | – | – | CC(=O)NC1C(O)OC(CO)C(OC2OC(CO)C(O)C(OC3OC(CO)C(O)C(O)C3NC(C)=O)C2OC2OC(C)C(O)C(O)C2O)C1O (stereo not shown) [A type−2 (tetra)]
150 | 2.9 | −5.6 | −8.5 | 86 | 13 | 0.0020 | 58 | 0.0091 | – | – | 39 | 0.0061 | 60 | 0.0095 | 100 | 0.0158 | 10 | 0.0016 | increased affinity of type-6 vs corresponding type-2 antigen [2]: two-fold; STD% ([3]; 1H-residue H1GalNAc): 82%; STD-AF [3, 5]: 0.0129; STD% ([3]; 1H-residue H1Glca): 21%; STD-AF ([3]; 1H-residue H1Glca): 0.0033; STD% ([3]; 1H-residue H1Glcb): 18%; STD-AF ([3]; 1H-residue H1Glcb): 0.0028; STD% ([3]; 1H-residue H2GalNAc): 51%; STD-AF ([3]; 1H-residue H2GalNAc): 0.0081; STD% ([3]; 1H-residue H2Glca / H2Glcα): 34%; STD-AF ([3]; 1H-residue H2Glca / H2Glcα): 0.0054; STD% ([3]; 1H-residue H2Glcb / H2Glcβ): 30%; STD-AF ([3]; 1H-residue H2Glcb / H2Glcβ): 0.0048; STD% ([3]; 1H-residue H3Glcb / H3Glcβ): 32%; STD-AF ([3]; 1H-residue H3Glcb / H3Glcβ): 0.0050; STD% [3, 6]: 16%; STD-AF [3, 6]: 0.0025; STD% ([3]; 1H-residue NHAc GalNAc): 100%; STD-AF ([3]; 1H-residue NHAc GalNAc): 0.0158 | CC(=O)NC1C(OC2C(O)C(CO)OC(OC3C(CO)OC(O)C(O)C3O)C2OC2OC(C)C(O)C(O)C2O)OC(CO)C(O)C1O (stereo not shown) [A type-6 (tetra)]
460 | – | – | – | – | 21 | 0.0020 | 49 | 0.0046 | 47 | 0.0044 | – | – | 68 | 0.0064 | 86 | 0.0081 | 10 | 0.0009 | STD% ([3]; 1H-residue H1Galα): 100%; STD-AF ([3]; 1H-residue H1Galα): 0.0094; STD% ([3]; 1H-residue H3Galα): 44%; STD-AF ([3]; 1H-residue H3Galα): 0.0041; STD% [3, 7]: 30%; STD-AF [3, 7]: 0.0028; STD% ([3]; 1H-residue NHAc (B type 4)): 36%; STD-AF ([3]; 1H-residue NHAc (B type 4)): 0.0034 | CC(=O)NC1C(OC2C(O)C(O)OC(CO)C2O)OC(CO)C(O)C1OC1OC(CO)C(O)C(OC2OC(CO)C(O)C(O)C2O)C1OC1OC(C)C(O)C(O)C1O (stereo not shown) [B type-4 (penta)]
– | 1.0 | −4.9 | −5.9 | 267 | – | – | – | – | – | – | – | – | – | – | – | – | – | – | – | CC(=O)N[C@@H]1[C@@H](O[C@@H]2O[C@H](CO)[C@H](O)[C@H](O[C@H]3O[C@H](CO)[C@H](O)[C@H](O)[C@H]3NC(C)=O)[C@H]2O[C@@H]2O[C@@H](C)[C@@H](O)[C@@H](O)[C@@H]2O)[C@H](O)[C@@H](CO)O[C@H]1O [A type-1 (tetra)]
1380 | – | – | – | – | – | – | 61 | 0.0092 | 36 | 0.0054 | 21 | 0.0032 | 71 | 0.0108 | 100 | 0.0152 | – | 0.0012 | STD% ([3]; 1H-residue H1GalNAc): 95%; STD-AF [3, 5]: 0.0145; STD% ([3]; 1H-residue H3GalNAc): 28%; STD-AF ([3]; 1H-residue H3GalNAc): 0.0043; STD% ([3]; 1H-residue H3GalNAcb): 15%; STD-AF ([3]; 1H-residue H3GalNAcb): 0.0023; STD% ([3]; 1H-residue H4GalNAcb): 24%; STD-AF ([3]; 1H-residue H4GalNAcb): 0.0036; STD% ([3]; 1H-residue NHAc GalNAc): 68%; STD-AF ([3]; 1H-residue NHAc GalNAc): 0.0104 | CC(=O)N[C@H]1[C@@H](O[C@H]2[C@@H](O)[C@@H](CO)O[C@@H](O[C@H]3[C@@H](O)[C@@H](CO)O[C@@H](O[C@@H]4[C@@H](O)[C@H](O)O[C@H](CO)[C@@H]4O)[C@@H]3NC(C)=O)[C@@H]2O[C@@H]2O[C@@H](C)[C@@H](O)[C@@H](O)[C@@H]2O)O[C@H](CO)[C@H](O)[C@@H]1O [A type-4 (penta)]
